Measured values: article PMC9218685, “Legume Plant Peptides as Sources of Novel Antimicrobial Molecules Against Human Pathogens” (Frontiers in Molecular Biosciences, 2022)
≈ marks a conversion by molar mass, not a printed value. Ends that are not written are not given here. Peptide text beside a SMILES is read from it.

Assays:
Type in all cases: cell-based
[1] = test system: Acinetobacter baumannii (ATCC 17978); assay: microbe, parasite or virus in culture; settings: for Activity against A. baumannii: 3 h, peptides ≤25 µM; for MBC Acinetobacter baumannii: ATCC 17978, 3 h
Description: (§1) The following pathogenic bacterial strains were used: The Gram-positive Enterococcus faecalis (ATCC 29212), Staphylococcus aureus (HNCMO112011), Listeria monocytogenes (ATCC 19111) and the Gram-negative Pseudomonas aeruginosa (ATCC 27853), Escherichia coli (ATCC 8739), Salmonella enterica (ATCC 13076), Klebsiella pneumoniae (NCTC 13440), Acinetobacter baumannii (ATCC 17978) obtained from the ATCC (United States) and NCTC (National Collection of Type Cultures–England). For the antifungal experiment the Candida albicans W01 strain ([Ördögh et al., 2014]) was used. Antimicrobial activities of peptides against ∼10^7 log phase bacteria were tested in Potassium-Phosphate Buffer (PPB, pH 7.4) as described by [Jenei et al. (2020)] while anti-Candida assays were done according to [Szerencsés et al. (2021)]. The two-fold dilution series of peptides ranged from 25 μM to 0.125 μM, while that of the antibiotics ampicillin (Merck) and miconazole (Duchefa Biochemie) from […] to 0.1 μM. The lowest concentration of the antimicrobial agents, which completely eliminated viable bacteria or C. albicans were considered as the minimal bactericidal concentration (MBC) and minimal fungicidal concentration (MFC).
(§2) The minimal bactericidal concentrations (MBCs) were determined after 3 h of treatment of ∼10^7 log phase bacteria with 2-fold serial dilution of peptides from 25 µM to 0.8 µM. Only 25 of the 50 cationic M. truncatula peptides had activity at ≤25 µM (Supplementary Table S1). […] Three peptides were only active against two bacterial strains; NCR649 against L. monocytogenes and A. baumannii, NCR281 against L. monocytogenes and P. aeruginosa and NCR350 against A. baumannii and P. aeruginosa. […] None of the anionic NCR peptides affected the survival of the tested bacterial strains.

[2] = test system: Pseudomonas aeruginosa (ATCC 27853); settings: for MBC Pseudomonas aeruginosa: ATCC 27853, 3 h
Description: as §1, §2

[3] = test system: E. coli, S. enteritidis, P. aeruginosa, L. monocytogenes, S. aureus, E. faecalis, K. pneumoniae and A. baumannii; assay: Antimicrobial activity assay, spectrum over the eight tested pathogenic bacteria; settings: 3 h treatment of ~10^7 log phase bacteria, peptides 25 to 0.8 µM; active = MBC ≤25 µM
Description: as §1
We investigated the antimicrobial activity of 78 NCR peptides from M. truncatula and 12 NCRs from other IRLC legumes as well as their shorter derivatives against E. coli, S. enteritidis, P. aeruginosa, L. monocytogenes, S. aureus, E. faecalis, K. pneumoniae and A. baumannii (Supplementary Table S1). In the selection of the M. truncatula peptides, we considered their symbiotic expression levels but also their physicochemical properties. The antimicrobial activity of NCRs has so far been attributed to cationic peptides, with the exception of one anionic peptide. To investigate whether other anionic NCRs are antimicrobial, in addition to the cationic peptides, neutral and anionic NCRs were also included covering a broad range of peptides with different net charges (NC: from 7.8 to −10.2) and isoelectric points (pI: from 10.69 to 2.95). 50 peptides had positive net charge and pI > 7.0, while 28 peptides had negative net charge and pI < 7.0 (Supplementary Table S1A). Of the other legumes, only cationic NCR peptides were studied (Supplementary Table S1B).
as §2

## CC1(C)S[C@@H]2[C@H](NC(=O)[C@H](N)c3ccccc3)C(=O)N2[C@H]1C(=O)O [Ampicillin, reference compound]
[1]; Acinetobacter baumannii, ATCC17978, ~10^7 log phase bacteria, Potassium-Phosphate Buffer pH 7.4, 3 h treatment, two-fold dilution series, lowest concentration completely eliminating viable bacteria, read-out: MBC, minimal bactericidal concentration against A. baumannii
  MBC: 10200 µM (≈ 3580 µg/mL)

## CC[C@H](C)[C@H](NC(=O)[C@H](Cc1ccc(O)cc1)NC(=O)[C@H](CC(N)=O)NC(=O)[C@H](CCCNC(=N)N)NC(=O)[C@@H](NC(=O)[C@H](CCC(N)=O)NC(=O)[C@H](CCCNC(=N)N)NC(=O)[C@H](CS)NC(=O)[C@H](CC(=O)O)NC(=O)[C@H](CCCCN)NC(=O)[C@H](CC(N)=O)NC(=O)[C@@H](NC(=O)[C@@H](NC(=O)[C@H](CS)NC(=O)[C@H](CC(N)=O)NC(=O)[C@H](CCCNC(=N)N)NC(=O)[C@H](CO)NC(=O)[C@@H](NC(=O)[C@@H]1CCCN1C(=O)[C@H](CC(C)C)NC(=O)[C@@H](N)Cc1ccccc1)[C@@H](C)O)[C@@H](C)CC)[C@@H](C)O)C(C)C)C(=O)N[C@@H](C)C(=O)N[C@@H](CCCNC(=N)N)C(=O)N[C@@H](CS)C(=O)N[C@@H](CCCNC(=N)N)C(=O)N[C@@H](CCCCN)C(=O)NCC(=O)N[C@@H](CCC(N)=O)C(=O)N[C@@H](CS)C(=O)N[C@@H](CC(C)C)C(=O)N[C@@H](CCC(N)=O)C(=O)N[C@@H](CO)C(=O)N1CCC[C@H]1C(=O)N[C@H](C(=O)N[C@@H](CCCNC(=N)N)C(=O)O)C(C)C [NCR030] (H-FLPTSRNCITNKDCRQVRNYIARCRKGQCLQSPVR-OH; N-terminus assumed)
[1]; ~10^7 log phase bacteria
  Activity against A. baumannii: only against A. baumannii
[1]
  MBC Acinetobacter baumannii: 3.125 µM (≈ 12.9 µg/mL)

## CC[C@H](C)[C@H](NC(=O)[C@H](Cc1ccccc1)NC(=O)[C@@H](NC(=O)[C@H](CCCCN)NC(=O)[C@H](CC(=O)O)NC(=O)[C@@H]1CCCN1C(=O)[C@@H](N)Cc1ccccc1)[C@@H](C)CC)C(=O)NCC(=O)N[C@@H](CC(=O)O)C(=O)N[C@@H](CS)C(=O)N[C@@H](CCCCN)C(=O)N[C@H](C(=O)N[C@@H](CC(=O)O)C(=O)N[C@@H](CCCCN)C(=O)N[C@@H](CC(=O)O)C(=O)N[C@@H](CS)C(=O)N[C@@H](CCCCN)C(=O)N1CCC[C@H]1C(=O)N[C@@H](CCCCN)C(=O)N[C@@H](CCCNC(=N)N)C(=O)NCC(=O)N[C@H](C(=O)N[C@@H](CC(N)=O)C(=O)N[C@@H](Cc1ccccc1)C(=O)N[C@@H](CCCNC(=N)N)C(=O)N[C@@H](CS)C(=O)N[C@@H](CCCNC(=N)N)C(=O)N[C@@H](CCCCN)C(=O)NCC(=O)N[C@@H](CCCCN)C(=O)N[C@@H](CS)C(=O)N[C@@H](Cc1ccc(O)cc1)C(=O)N1CCC[C@H]1C(=O)N[C@@H](CCCNC(=N)N)C(=O)O)C(C)C)[C@@H](C)O [NCR032] (H-FPDKIFIGDCKTDKDCKPKRGVNFRCRKGKCYPR-OH; N-terminus assumed)
[1]; ~10^7 log phase bacteria
  Activity against A. baumannii: only against A. baumannii
[1]
  MBC Acinetobacter baumannii: 3.125 µM (≈ 12.6 µg/mL)

## CC[C@H](C)[C@H](NC(=O)[C@H](Cc1ccc(O)cc1)NC(=O)[C@H](CC(N)=O)NC(=O)[C@H](CCCCN)NC(=O)[C@@H](NC(=O)[C@H](CO)NC(=O)[C@@H]1CCCN1C(=O)[C@H](CS)NC(=O)[C@H](CC(=O)O)NC(=O)[C@H](CCCCN)NC(=O)[C@H](CC(=O)O)NC(=O)[C@@H](NC(=O)[C@@H](NC(=O)[C@H](CS)NC(=O)[C@@H](NC(=O)[C@H](CCCNC(=N)N)NC(=O)[C@@H](NC(=O)[C@@H](NC(=O)[C@@H]1CCCN1C(=O)[C@H](CC(C)C)NC(=O)[C@H](Cc1ccc(O)cc1)NC(=O)[C@@H](N)[C@@H](C)O)[C@@H](C)O)[C@@H](C)O)[C@@H](C)CC)[C@@H](C)CC)[C@@H](C)O)C(C)C)C(=O)NCC(=O)N[C@@H](CCCNC(=N)N)C(=O)N[C@@H](CS)C(=O)N[C@@H](CCCNC(=N)N)C(=O)N[C@@H](CCCCN)C(=O)NCC(=O)N[C@@H](Cc1ccc(O)cc1)C(=O)N[C@@H](CS)C(=O)N[C@@H](CCC(N)=O)C(=O)N[C@@H](C)C(=O)N[C@@H](CO)C(=O)N[C@@H](CCCCN)C(=O)N[C@@H](CC(C)C)C(=O)N[C@@H](CCCNC(=N)N)C(=O)O [NCR042] (H-TYLPTTRICITDKDCPSVKNYIGRCRKGYCQASKLR-OH; N-terminus assumed)
[2]
  MBC Pseudomonas aeruginosa: 25 µM (≈ 104 µg/mL)

## CC[C@H](C)[C@H](NC(=O)[C@H](CCSC)NC(=O)[C@H](CCCNC(=N)N)NC(=O)[C@H](CCCNC(=N)N)NC(=O)CNC(=O)[C@@H]1CCCN1C(=O)[C@H](CC(C)C)NC(=O)[C@H](CS)NC(=O)[C@H](Cc1ccc(O)cc1)NC(=O)[C@H](CCCCN)NC(=O)[C@@H](NC(=O)[C@@H]1CCCN1C(=O)[C@H](CO)NC(=O)[C@H](CS)NC(=O)[C@H](CC(=O)O)NC(=O)[C@H](CO)NC(=O)[C@@H](NC(=O)[C@H](CCCCN)NC(=O)[C@@H](NC(=O)[C@H](CS)NC(=O)[C@H](CCC(=O)O)NC(=O)[C@H](CC(=O)O)NC(=O)[C@@H](N)CO)C(C)C)C(C)C)[C@@H](C)O)C(=O)N[C@@H](CS)C(=O)N[C@@H](CO)C(=O)N[C@@H](CCCCN)C(=O)NCC(=O)N[C@@H](CCCCN)C(=O)N[C@@H](CS)C(=O)N[C@@H](CCCCN)C(=O)N[C@@H](CS)C(=O)N[C@@H](CC(C)C)C(=O)N[C@@H](CCCNC(=N)N)C(=O)N[C@@H](CC(N)=O)C(=O)N[C@@H](CCSC)C(=O)N[C@@H](Cc1ccccc1)C(=O)N[C@H](C(=O)N1CCC[C@H]1C(=O)N[C@H](C(=O)N1CCC[C@H]1C(=O)O)[C@@H](C)CC)[C@@H](C)CC [NCR135] (H-SDECVKVSDCSPTKYCLPGRRMICSKGKCKCLRNMFIPIP-OH; N-terminus assumed)
[3]
  Antibacterial spectrum over the eight tested bacterial strains: against three strains

## CC[C@H](C)[C@H](NC(=O)[C@H](CC(N)=O)NC(=O)[C@H](Cc1c[nH]cn1)NC(=O)[C@@H]1CCCN1C(=O)[C@@H]1CCCN1C(=O)[C@H](CCSC)NC(=O)[C@H](CCCNC(=N)N)NC(=O)[C@@H]1CCCN1C(=O)[C@H](CS)NC(=O)[C@H](CC(=O)O)NC(=O)[C@H](CCCCN)NC(=O)[C@H](CC(=O)O)NC(=O)[C@@H](NC(=O)[C@H](CC(C)C)NC(=O)[C@H](CS)NC(=O)[C@@H]1CCCN1C(=O)[C@H](CCCNC(=N)N)NC(=O)[C@H](CC(C)C)NC(=O)[C@@H](NC(=O)[C@H](CCSC)NC(=O)CNC(=O)[C@@H](N)Cc1ccccc1)[C@@H](C)O)[C@@H](C)O)C(=O)N[C@@H](CCCCN)C(=O)N[C@@H](CS)C(=O)N[C@@H](CCCNC(=N)N)C(=O)N[C@@H](CCCCN)C(=O)NCC(=O)N[C@@H](Cc1c[nH]cn1)C(=O)N[C@@H](CS)C(=O)N[C@H](C(=O)N1CCC[C@H]1C(=O)N[C@H](C(=O)NCC(=O)N[C@@H](CCCCN)C(=O)N1CCC[C@H]1C(=O)N[C@@H](Cc1ccccc1)C(=O)N[C@@H](CCCCN)C(=O)O)[C@@H](C)CC)C(C)C [NCR137] (H-FGMTLRPCLTDKDCPRMPPHNIKCRKGHCVPIGKPFK-OH; N-terminus assumed)
[1]
  MBC Acinetobacter baumannii: 25 µM (≈ 106 µg/mL)

## CC[C@H](C)[C@H](NC(=O)[C@H](CC(N)=O)NC(=O)[C@H](Cc1ccc(O)cc1)NC(=O)[C@H](CCC(N)=O)NC(=O)[C@H](CO)NC(=O)[C@@H](NC(=O)[C@H](CCCCN)NC(=O)[C@@H]1CCCN1C(=O)[C@H](CS)NC(=O)[C@H](CC(=O)O)NC(=O)[C@H](CCCCN)NC(=O)[C@H](CC(=O)O)NC(=O)[C@@H](NC(=O)[C@@H](NC(=O)[C@H](CS)NC(=O)[C@@H]1CCCN1C(=O)CNC(=O)[C@H](CO)NC(=O)[C@H](CC(N)=O)NC(=O)[C@@H](NC(=O)[C@H](Cc1ccc(O)cc1)NC(=O)[C@@H]1CCCN1C(=O)[C@@H](NC(=O)[C@H](CO)NC(=O)[C@H](CC(=O)O)NC(=O)[C@H](Cc1ccc(O)cc1)NC(=O)[C@@H](NC(=O)[C@@H](N)CO)C(C)C)[C@@H](C)CC)C(C)C)C(C)C)[C@@H](C)O)C(C)C)C(=O)N[C@@H](CCCNC(=N)N)C(=O)N[C@@H](CS)C(=O)N[C@@H](CCCNC(=N)N)C(=O)N[C@@H](CCCCN)C(=O)NCC(=O)N[C@@H](CCC(N)=O)C(=O)N[C@@H](CS)C(=O)N[C@@H](C)C(=O)N[C@@H](CCCNC(=N)N)C(=O)N[C@H](C(=O)N[C@@H](CCCNC(=N)N)C(=O)N[C@H](C(=O)O)C(C)C)[C@@H](C)CC [NCR361] (H-SVYDSIPYVNSGPCVTDKDCPKVSQYNIRCRKGQCARIRV-OH; N-terminus assumed)
[2]
  MBC Pseudomonas aeruginosa: 25 µM (≈ 113 µg/mL)

## VYDSKYFQIASPCVNDKDCPQFKNNNVRCRRGFCVNSGGATQKCLGCPSLK-OH (cysteines drawn unpaired) [NCR350]
[1]; ~10^7 log phase bacteria
  Activity against A. baumannii: active
[1]
  MBC Acinetobacter baumannii: 12.5 µM
[2]; 3 h, ~10^7 log phase bacteria, peptides ≤25 µM
  Activity against P. aeruginosa: active
[2]
  MBC Pseudomonas aeruginosa: 25 µM
